# Where two headings read alike, the source gives them in different places.
# What was measured:
# [1] = system: postsynaptic DA receptors; assay: Antagonism of the reserpine-induced "neuroleptic syndrome" in the rat; type: in vivo; conditions: s.c., different doses, not even at nearly lethal doses
# Excerpt: 1. Antagonism of the reserpine-induced "neuroleptic syndrome" in the rat
# Depletion of the monoamine stores with reserpine brings about a "neuroleptic syndrome" characterized by hypomotility, catalepsy, muscle rigidity, hunch-backed posture as well as a number of other central and peripheral signs of monoamine depletion. This syndrome can be reversed by the administration of drugs that stimulate postsynaptic DA receptors directly or indirectly, e.g. apomorphine, L-Dopa.
# Rats (150-300 g) pretreated with reserpine (10 mg/kg i.p., 6 h before) were given compound 4 subcutaneously at different doses.
# [2] = system: rat brain tyrosine hydroxylation; assay: In-vivo determination of rat brain tyrosine hydroxylation (Dopa formation after NSD 1015, reserpine-pretreated rats); conditions: sc, reserpine-pretreated rats, Dopa level
# Description: 2. In-vivo determination of rat brain tyrosine hydroxylation.
# The compounds under evaluation were tested biochemically for central DA-receptor (pre- and/or postsynaptic) stimulating activity. The concept of this biochemical screening method is that a DA-receptor agonist will stimulate the receptor and through regulatory feedback systems effect a decline in tyrosine hydroxylase activity and thus a subsequent reduction in the synthesis rate for DA in the presynaptic neuron. Dopa formation, as determined after in-vivo inhibition of the aromatic L-amino acid decarboxylase with NSD 1015 (3-hydroxybenzyl-hydrazine hydrochloride), is taken as an indirect measure of DA synthesis rate.
# (§1) Rats (150-300 g) pretreated with reserpine were given the compounds under evaluation. Gross behavioral observations (changes in motility, stereotypies etc.) were made in order to evaluate possible postsynaptic dopamine receptor activity. Subsequent administration of NSD 1015, decapitation, brain dissection (corpora striate and the limbic fore-brain), homogenization, centrifugation, ion-exchange chromatography and spectrofluorimetric measurements (all as described in detail by Wikstrom et al., in J. Med. Chem. 21, 864-867, 1978, and references cited therein), gave the actual Dopa levels. Several doses (n=4-6) were tested in order to obtain dose-response curves for each compound and brain area. The dose of a compound producing a half-maximal decrease in the Dopa level in the rat brain part was then estimated.
# DA autoreceptors [3] = assay: Effect on spontaneous locomotor activity in the rat; type: in vivo; conditions: for Motor activity: 0-15 min
# Excerpt: 4. Effect on spontaneous locomotor activity in the rat.
# Untreated animals exposed to a new environment display an initial high motor activity which then gradually declines over a period of time. Administration of DA-receptor agonists (e.g. apomorphine) in doses where preferential autoreceptor stimulation is likely to occur, causes a depression of the spontaneous motility mentioned above, considered to be due to the DA autoreceptor-mediated impairment of central DA transmission.
# Rats (150-300 g) were injected subcutaneously with several doses of compounds 4 and after 5 minutes they were individually placed in motility boxes ("M/P 40 Fc Electronic Motility Meter". Motron Products, Stockholm) and the motor activity (0-30 min.) was quantified. […] Moreover, there seems to be a correlation between the decrease in spontaneous locomotion and the degree of antagonism of the GBL-induced increase in DA synthesis (cf. 3 above) in the limbic areas of rat brain exerted by compound 4, the per cent decrease of motor activity being roughly 0.6 times the per cent reversal of GBL-induced increase in DA-synthesis rate.
# DA autoreceptors [4] = assay: Turning behavior in rats with acute unistriatal KCl lesion; type: in vivo, rat; set-up: key to Catalepsy: + present; - absent; conditions: for Apomorphine-induced turning: apomorphine 1.0 mg/kg s.c. 1 h after
# Excerpt: 5. Turning behavior in rats with acute unistriatal lesion.
# In animals with an acute unilateral KCl-lesion (1μ1 25% KCl lesioned side, 1μ1 20% NaCl control side, administered through previously implanted "guide cannulaes") of the striatum, compensatory counterbalancing adjustments in the intact contralateral striatum are brought about and therefore no appreciable asymmetry in body posture or torsion is observed. Disturbances in the balance produces, depending on the point of attack, ipsi- or alternatively contralateral turning. In this model postsynaptically active DA agonists (e.g. apomorphine, high dosage) elicit ipsilateral turning and rotatory behavior whereas DA antagonists (e.g. haloperidol) cause contralateral turning. Consequently it could be expected that agents acting exclusively on DA autoreceptors would produce contralateral turning in the lesioned animals.
# [5] = system: postsynaptic DA receptors; assay: Emetic activity in dogs; type: in vivo; conditions: at least at 1 mg/kg i.m.
# Excerpt: It was in fact lacking any measurable temperature effects.
# [6] = system: central postsynaptic DA-receptor; assay: Locomotor activity in reserpine-pretreated rats, comparison of compound 4 with two known dopaminergic agonists; type: in vivo, rat
# Description: Rats (150-300 g) pretreated with reserpine (10 mg/ kg i.p., 6 h before) were given either phys. saline, compound 4 (100 μmol/kg), N-n-propyl-3-(3,4-dihydroxyphenyl)piperidine (100 μmol/kg) or apomorphine ([…]) subcutaneously and the locomotor activity (accumulated counts 0-60 min.) was quantified by means of Motron boxes (see under 4 above).
# [7] = system: postsynaptic dopaminergic receptor; assay: Antagonism of apomorphine-induced locomotor stimulation; type: in vivo, rat
# Description: 3. Evidence for postsynaptic dopminergic receptor antagonist activity of (-)-3-PPP.
# The locomotor stimulating action of the dopamine receptor aqonist apomorphine is antagonized by (-)-3-PPP. […] Thus the postsynaptic receptor antagonist activity requires a larger dose than the presynaptic receptor agonist activity, which is evident after doses down to 0.25 mg/kg.
# Further, (-)-3-PPP and racemic 3-PPP have been compared regarding antagonism of apomorphine-induced locomotor stimulation. Either form of 3-PPP was injected subcutaneously in a dose of 8 mg/kg 20 min and apomorphine in a dose of 1 mg/kg subcutaneously 5 min before placing the rats in the Motron for 30 min. Shown are the counts per 30 min., means± s.e.m. and number of experiments (n).
# [8] = system: postsynaptic dopamine receptor; assay: Gross behavioral observations for postsynaptic dopamine receptor activity; type: in vivo, rat; conditions: gross behavioural observations, any dose tested
# Excerpt: as §1
# [9] = system: dopaminergic receptors (presynaptic and postsynaptic); conditions: racemic mixtures; cited from earlier work
smiles,measurement,setting,value
"Br.CCCN1CCCC(c2cccc(O)c2)C1 (racemic) [Compound 4, N-n-propyl-3-(3-hydroxyphenyl)piperidine hydrobromide]",antagonism of the reserpine-induced syndrome,[1],no antagonism of the reserpine-induced syndrome was observed
same,ED50,"[2]; limbic, read-out: ED50 Limbic",2.7 µmol/kg
same,ED50,"[2]; striatum, read-out: ED50 Striatum",2.7 µmol/kg
same,Motor activity,"DA autoreceptors [3]; glucose i.p. + compound 4 0.5 mg/kg s.c., n=5",43 ± 9 acc. counts
same,Motor activity,"DA autoreceptors [3]; haloperidol 0.02 mg/kg i.p. + compound 4 0.5 mg/kg s.c., n=7",80 ± 10 acc. counts
same,reversal of sedative effect by haloperidol,"DA autoreceptors [3]; haloperidol 0.02 mg/kg i.p. 30 min before, compound 4 0.5 mg/kg",at least partly reversed the sedative effect
same,per cent decrease of motor activity relative to per cent reversal of GBL-induced increase in DA-synthesis rate,"DA autoreceptors [3]; limbic areas, correlation",roughly 0.6 times
same,locomotor stimulation,DA autoreceptors [3]; regardless of the dose used,No locomotor stimulation was ever seen
same,maximal decrease of motor activity from control values,"DA autoreceptors [3]; s.c., 0-30 min, at about 8 mg/kg",75%
same,dose at which maximal effect is attained,"DA autoreceptors [3]; s.c., 75% decrease from control values",about 8 mg/kg
same,dose dependence of motor activity effect,"DA autoreceptors [3]; s.c., several doses",clear dose-dependent decrease of the initial high motor activity
same,Catalepsy,DA autoreceptors [4]; 1 mg/kg s.c.,-
same,Turning contralateral,"DA autoreceptors [4]; 1 mg/kg s.c., 2 animals",2
same,Turning ipsilateral,"DA autoreceptors [4]; 1 mg/kg s.c., 2 animals",0
same,Catalepsy,DA autoreceptors [4]; 2 mg/kg s.c.,-
same,Duration of turning,DA autoreceptors [4]; 2 mg/kg s.c.,> 2 h
same,Turning contralateral,"DA autoreceptors [4]; 2 mg/kg s.c., 4 animals",4
same,Turning ipsilateral,"DA autoreceptors [4]; 2 mg/kg s.c., 4 animals",0
same,Apomorphine-induced turning,DA autoreceptors [4]; 2 mg/kg s.c.,Ipsi 4/4
same,Catalepsy,DA autoreceptors [4]; 4 mg/kg s.c.,-
same,Turning contralateral,"DA autoreceptors [4]; 4 mg/kg s.c., 2 animals",2
same,Turning ipsilateral,"DA autoreceptors [4]; 4 mg/kg s.c., 2 animals",0
same,Catalepsy,DA autoreceptors [4]; 8 mg/kg s.c.,-
same,Duration of turning,DA autoreceptors [4]; 8 mg/kg s.c.,> 4 h
same,Turning contralateral,"DA autoreceptors [4]; 8 mg/kg s.c., 4 animals",4
same,Turning ipsilateral,"DA autoreceptors [4]; 8 mg/kg s.c., 4 animals",0
same,Apomorphine-induced turning,DA autoreceptors [4]; 8 mg/kg s.c.,Ipsi 4/4
same,Catalepsy,DA autoreceptors [4]; 32 mg/kg s.c.,+
same,Duration of turning,DA autoreceptors [4]; 32 mg/kg s.c.,> 4 h
same,Turning contralateral,"DA autoreceptors [4]; 32 mg/kg s.c., 8 animals",8
same,Turning ipsilateral,"DA autoreceptors [4]; 32 mg/kg s.c., 8 animals",0
same,Apomorphine-induced turning,DA autoreceptors [4]; 32 mg/kg s.c.,Ipsi 8/8
same,effect on apomorphine ipsilateral turning and rotatory response,"DA autoreceptors [4]; apomorphine 1.0 mg/kg s.c., pretreatment with compound 4",not affected by pretreatment with compound 4
same,turning direction,"DA autoreceptors [4]; s.c., each dose tested",made the animals turn to the side contralateral to the lesion
same,overall appearance,"DA autoreceptors [4]; s.c., lesioned rats",indicative of a sedative action
same,emetic activity,[5],devoid of emetic activity in dogs
same,Motor activity,"[6]; 0-60 min postinj., 100 μmol/kg s.c.",55 ± 4 acc. counts
same,central postsynaptic DA-receptor stimulation / motor response,[6]; s.c.,failed to elicit a motor response that differed more than slightly from control values
same,antagonism of apomorphine locomotor stimulation,[7]; 8 mg/kg s.c.,did not
same,"counts per 30 min., with apomorphine","[7]; 8 mg/kg s.c. + apomorphine 1 mg/kg s.c., means ± s.e.m., n=5",443 ± 26 counts per 30 min.
same,postsynaptic DA-receptor activation,[8],selectivity for the autoreceptors
same,activation of classical postsynaptic dopaminergic receptors,[9],no concomitant activation of the classical postsynaptic dopaminergic receptors could be detected

# Source: US4937346A, “Phenyl-azacykloalkanes” (Carlsson; Per Arvid Emil, priority 1979, dated 1990)
